Source: patent US11085056B2, “Transfection complexes and methods of using the same” (MOLECULAR TRANSFER, INC., priority 2015, dated 2021)

Key:
C2C12 Cells = test: Transfection of C2C12 cells with DOTMA/DOPE/peptide and eGFP plasmid, fluorescent plate reader; type: cell-based, mouse; conditions: DOTMA/DOPE 1:1 plus peptide with RRRRRRRRRRRR (SEQ ID NO: 109) at n terminus; EF1Alpha eGFP plasmid; 0.02 mL complex; 42 hours
Summary of the method: (§1)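 Cells at 60-70% confluence got DOTMA/DOPE (1:1) mixed with peptides bearing an N-terminal R12 DNA-binding tag, complexed 10 min with EF1α-eGFP plasmid (5 μg/mL in OptiMEM); 0.01 or 0.02 mL complex per well. After 42 h at 37 °C, GFP read by fluorescence plate reader and % transfected cells by microscopy, relative to lipid without peptide.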

Jurkat Cells = test: Transfection of Jurkat cells with DOTMA/DOPE/peptide and eGFP plasmid, fluorescent plate reader; type: cell-based; conditions: DOTMA/DOPE 1:1 plus peptide with RRRRRRRRRRRR (SEQ ID NO: 109) at n terminus; EF1Alpha eGFP plasmid; 0.02 mL complex; 42 hours
Summary of the method: as §1

HeLa Cells [1] = test: Transfection of HeLa cells with DOTMA/DOPE/peptide and eGFP plasmid, fluorescent plate reader; type: cell-based; conditions: DOTMA/DOPE 1:1 plus peptide with RRRRRRRRRRRR (SEQ ID NO: 109) at n terminus; EF1Alpha eGFP plasmid; 0.01 mL complex; 42 hours
Summary of the method: as §1

Human Fibroblast Cells = test: Transfection of human fibroblast cells with DOTMA/DOPE/peptide and eGFP plasmid, fluorescent plate reader; type: cell-based; conditions: DOTMA/DOPE 1:1 plus peptide with RRRRRRRRRRRR (SEQ ID NO: 109) at n terminus; EF1Alpha eGFP plasmid; 0.01 mL complex; 42 hours
Summary of the method: as §1

some examined cell types = test: Transfection expression and % cells transfected over the no peptide control; type: cell-based; conditions: on some examined cell types
Summary of the method: as §1

HeLa Cells [2] = test: Transfection of HeLa cells with DOTMA/SEQ ID NO: 72/peptide compared with Lipofectamine 2000; type: cell-based; conditions: fusogenic peptide 0.1 mg/mL
Summary of the method: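 HeLa cells at 60–70% confluence received 0.01 mL of complexes of EF1Alpha eGFP plasmid (5 μg/mL in OptiMEM) with DOTMA/DOPE (1:1) plus R12-linked peptide, with fusogenic peptide at 0.1 mg/mL final. GFP read by fluorescence plate reader and microscopy (% cells transfected) after 42 h at 37 °C.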

NL-1 iPS Cells = test: Transfection of NL-1 iPS cells with DOTMA/DOPE/peptide and eGFP plasmid, fluorescent plate reader; type: cell-based; conditions: DOTMA/DOPE 1:1 plus peptide with RRRRRRRRRRRR (SEQ ID NO: 109) at n terminus; EF1Alpha eGFP plasmid; 42 hours
HuVec Cells = test: Transfection of HuVec cells with DOTMA/DOPE/peptide and eGFP plasmid, fluorescent plate reader; type: cell-based; conditions: DOTMA/DOPE 1:1 plus peptide with RRRRRRRRRRRR (SEQ ID NO: 109) at n terminus; EF1Alpha eGFP plasmid; 0.01 mL complex; 42 hours
Summary of the method: as §1

[3] = 0.1 μL of DOTMA/SEQ ID NO: 72/Peptide in well of a 96 well plate
[4] = 0.2 μL of DOTMA/SEQ ID NO: 72/Peptide in well of a 96 well plate
[5] = 0.3 μL of DOTMA/SEQ ID NO: 72/Peptide in well of a 96 well plate
[6] = 0.4 μL of DOTMA/SEQ ID NO: 72/Peptide in well of a 96 well plate

Substance | RF (Relative Fluorescence) of Transfection of C2C12 Cells (C2C12 Cells) | RF (Relative Fluorescence) of Transfection of Jurkat Cells (Jurkat Cells) | RF (Relative Fluorescence) of Transfection of HeLa Cells (HeLa Cells [1]) | RF (Relative Fluorescence) of Transfection of Human Fibroblast Cells (Human Fibroblast Cells) | transfection expression and the % cells transfected over the no peptide control (some examined cell types) | RF (Relative Fluorescence), DOTMA/SEQ ID NO: 72/Peptide, HeLa Cells (HeLa Cells [2]; [3]) | RF (Relative Fluorescence), DOTMA/SEQ ID NO: 72/Peptide, HeLa Cells (HeLa Cells [2]; [4]) | RF (Relative Fluorescence), DOTMA/SEQ ID NO: 72/Peptide, HeLa Cells (HeLa Cells [2]; [5]) | RF (Relative Fluorescence), DOTMA/SEQ ID NO: 72/Peptide, HeLa Cells (HeLa Cells [2]; [6]) | RF (Relative Fluorescence) of Transfection of NL-1 iPS Cells (NL-1 iPS Cells) | RF (Relative Fluorescence) of Transfection of HuVec Cells (HuVec Cells)
355 (FRHRNRKGY; Peptidic transfection agent) [compound 355] | 1900 | 8132 | 32628 | 6821 | increased | 18362 | 27990 | 22367 | 18289 | 7910 | 14810
357 (SETTVKYIFRLHE; Peptidic transfection agent) [compound 357] | 4506 | 2256 | 22679 | 7167 | increased | 7718 | 11798 | 9229 | 9107 | 15624 | 6009
358 (GHRGPTGRPGKRGKQGQKGDS; Peptidic transfection agent) [compound 358] | 2271 | 18820 | 15132 | 5665 | increased | 12331 | 12683 | 13686 | 11097 | 21956 | 25398
360 (GDLGRPGRKGRPGPP; Peptidic transfection agent) [compound 360] | 2090 | 16607 | 8516 | 5347 | increased | 9946 | 11168 | 10381 | 8995 | 27572 | 24042
365 (ISRCQVCMKKRH; Peptidic transfection agent) [compound 365] | 5390 | 5298 | 36093 | 5219 | increased | 26620 | 43775 | 36054 | 21540 | 6364 | 14764
367 (TDIPPCPHGWISLWK; Peptidic transfection agent) [compound 367] | 16207 | 4365 | 39008 | 10036 | increased | 10427 | 21411 | 23001 | 17529 | 17545 | 13354
369 (TAIPSCPEGTVPLYS; Peptidic transfection agent) [compound 369] | 3322 | 11085 | 14444 | 7590 | increased | 8737 | 16706 | 14880 | 12645 | 13124 | 6536
375 (LAGSCLPVFSTL; Peptidic transfection agent) [compound 375] | 5633 | 4272 | 41076 | 7305 | increased | 22457 | 30891 | 34887 | 29024 | 5196 | 5542
377 (TAGSCLRRFSTM; Peptidic transfection agent) [compound 377] | 1710 | 6785 | 15091 | 6638 | increased | 39115 | 40072 | 32914 | 22457 | 5474 | 9326
379 (TAGSCLRKF; Peptidic transfection agent) [compound 379] | 3189 | 7711 | 27424 | 8520 | increased | 50018 | 47049 | 39036 | 26448 | 6894 | 14573
